# Key:
# Assay type in all cases: cell-based
# B. subtilis ATCC 6633 = experiment: MIC by agar dilution, B. subtilis ATCC 6633; conditions: Bacillus subtilis, ATCC6633, 17 h; B. subtilis ATCC 6633; agar dilution, Mueller-Hinton agar; read-out: Minimal Inhibitory Concentration (MIC)
# Procedure: (§1) These MIC values were determined by agar dilution method: that is, two-fold dilutions of each of the test compounds were made and dispersed in a Mueller-Hinton agar medium; standard test strain which had the 10^6 CFU (Colony Forming Unit) per ml was inoculated on the medium with microplanter (Toyo, Japan), and incubated at 35°-37° C. for 17±1 hours. The structures of Ceftazidime (CAZ) and Cefotaxime (CTX) which are used as control compounds are as follows: [drawing 12]
# Staph. aureus ATCC 6538P = experiment: MIC by agar dilution, Staph. aureus ATCC 6538P; conditions: Staphylococcus aureus, ATCC6538P, 17 h; Staph. aureus ATCC 6538P; agar dilution, Mueller-Hinton agar; read-out: Minimal Inhibitory Concentration (MIC)
# Procedure: as §1
# Staph. aureus Smith = experiment: MIC by agar dilution, Staph. aureus Smith; conditions: Staphylococcus aureus, 17 h, Mueller-Hinton agar, read-out: Minimal Inhibitory Concentration (MIC)
# Procedure: as §1
# Staph. aureus C-57 = experiment: MIC by agar dilution, Staph. aureus C-57; conditions: Staphylococcus aureus, C57, 17 h, Mueller-Hinton agar, read-out: Minimal Inhibitory Concentration (MIC)
# Procedure: as §1
# Staph. aureus C-5113 = experiment: MIC by agar dilution, Staph. aureus C-5113; conditions: Staphylococcus aureus, C5113, 17 h, Mueller-Hinton agar, read-out: Minimal Inhibitory Concentration (MIC)
# Procedure: as §1
# Staph. aureus C-5216 = experiment: MIC by agar dilution, Staph. aureus C-5216; conditions: Staphylococcus aureus, C5216, 17 h, Mueller-Hinton agar, read-out: Minimal Inhibitory Concentration (MIC)
# Procedure: as §1
# [1] = tested on: S. epidermidis ATCC 12228; experiment: MIC by agar dilution, S. epidermidis ATCC 12228; conditions: Staphylococcus epidermidis, ATCC12228, 17 h; S. epidermidis ATCC 12228; agar dilution, Mueller-Hinton agar; read-out: Minimal Inhibitory Concentration (MIC)
# Procedure: as §1
# Ent. aerogenes IFO 12979 = experiment: MIC by agar dilution, Ent. aerogenes IFO 12979; conditions: Klebsiella aerogenes, IFO12979, 17 h, Mueller-Hinton agar, read-out: Minimal Inhibitory Concentration (MIC)
# Procedure: as §1
# Ent. cloacae IFO 13535 = experiment: MIC by agar dilution, Ent. cloacae IFO 13535; conditions: Enterobacter cloacae, IFO13535, 17 h; Ent. cloacae IFO 13535; agar dilution, Mueller-Hinton agar; read-out: Minimal Inhibitory Concentration (MIC)
# Procedure: as §1
# E. coli NIHJ JC-2 = experiment: MIC by agar dilution, E. coli NIHJ JC-2; conditions: Escherichia coli, NIHJJC2, 17 h; E. coli NIHJ JC-2; agar dilution, Mueller-Hinton agar; read-out: Minimal Inhibitory Concentration (MIC)
# Procedure: as §1
# E. coli No. 29 = experiment: MIC by agar dilution, E. coli No. 29; conditions: Escherichia coli, 17 h; E. coli No. 29; agar dilution, Mueller-Hinton agar; read-out: Minimal Inhibitory Concentration (MIC)
# Procedure: as §1
# E. coli DY-1 = experiment: MIC by agar dilution, E. coli DY-1; conditions: Escherichia coli, DY1, 17 h; E. coli DY-1; agar dilution, Mueller-Hinton agar; read-out: Minimal Inhibitory Concentration (MIC)
# Procedure: as §1
# K. pneumoniae NCTC 9632 = experiment: MIC by agar dilution, K. pneumoniae NCTC 9632; conditions: Klebsiella pneumoniae, NCTC9632, 17 h; K. pneumoniae NCTC 9632; agar dilution, Mueller-Hinton agar; read-out: Minimal Inhibitory Concentration (MIC)
# Procedure: as §1
# M. morganii DY-1 = experiment: MIC by agar dilution, M. morganii DY-1; conditions: Morganella morganii, DY1, 17 h; M. morganii DY-1; agar dilution, Mueller-Hinton agar; read-out: Minimal Inhibitory Concentration (MIC)
# Procedure: as §1
# [2] = tested on: Ps. aeruginosa ATCC 10145; experiment: MIC by agar dilution, Ps. aeruginosa ATCC 10145; conditions: Pseudomonas aeruginosa, ATCC10145, 17 h, Mueller-Hinton agar, read-out: Minimal Inhibitory Concentration (MIC)
# Procedure: as §1
# [3] = tested on: Ps. aeruginosa NCTC 10490; experiment: MIC by agar dilution, Ps. aeruginosa NCTC 10490; conditions: Pseudomonas aeruginosa, NCTC10490, 17 h, Mueller-Hinton agar, read-out: Minimal Inhibitory Concentration (MIC)
# Procedure: as §1
# Ps. aeruginosa DY-2 = experiment: MIC by agar dilution, Ps. aeruginosa DY-2; conditions: Pseudomonas aeruginosa, DY2, 17 h; Ps. aeruginosa DY-2; agar dilution, Mueller-Hinton agar; read-out: Minimal Inhibitory Concentration (MIC)
# Procedure: as §1
# P. vulgaris NCTC 8313 = experiment: MIC by agar dilution, P. vulgaris NCTC 8313; conditions: Proteus vulgaris, NCTC8313, 17 h; P. vulgaris NCTC 8313; agar dilution, Mueller-Hinton agar; read-out: Minimal Inhibitory Concentration (MIC)
# Procedure: as §1
# Prov. stuartii IFO 12930 = experiment: MIC by agar dilution, Prov. stuartii IFO 12930; conditions: Providencia stuartii, IFO12930, 17 h, Mueller-Hinton agar, read-out: Minimal Inhibitory Concentration (MIC)
# Procedure: as §1
# [4] = tested on: Ser. marcescens IFO 12648; experiment: MIC by agar dilution, Ser. marcescens IFO 12648; conditions: Serratia marcescens, IFO12648, 17 h; Ser. marcescens IFO 12648; agar dilution, Mueller-Hinton agar; read-out: Minimal Inhibitory Concentration (MIC)
# Procedure: as §1
Compound,MIC (B. subtilis ATCC 6633) [µg/mL],MIC (Staph. aureus ATCC 6538P) [µg/mL],MIC (Staph. aureus Smith) [µg/mL],MIC (Staph. aureus C-57) [µg/mL],MIC (Staph. aureus C-5113) [µg/mL],MIC (Staph. aureus C-5216) [µg/mL],MIC [1] [µg/mL],MIC (Ent. aerogenes IFO 12979) [µg/mL],MIC (Ent. cloacae IFO 13535) [µg/mL],MIC (E. coli NIHJ JC-2) [µg/mL],MIC (E. coli No. 29) [µg/mL],MIC (E. coli DY-1) [µg/mL],MIC (K. pneumoniae NCTC 9632) [µg/mL],MIC (M. morganii DY-1) [µg/mL],MIC [2] [µg/mL],MIC [3] [µg/mL],MIC (Ps. aeruginosa DY-2) [µg/mL],MIC (P. vulgaris NCTC 8313) [µg/mL],MIC (Prov. stuartii IFO 12930) [µg/mL],MIC [4] [µg/mL]
"CC(C)(ON=C(C(=O)NC1C(=O)N2C(C(=O)[O-])=C(C[n+]3ccn4cccc4c3)CSC12)c1csc(N)n1)C(=O)O (stereo not drawn) [Ex. 2, 7-β-[(Z)-2-(2-aminothiazol-4-yl)-2-(2-carboxyprop-2-oxyimino)acetamido]-3-(pyrrolo[1,2-a]pyrazinium-2-yl)methyl-3-cephem-4-carboxylate]",3.13,3.13,12.5,100,25,12.5,1.56,0.025,3.13,0.2,0.1,0.05,0.2,0.05,0.78,0.39,6.25,≤ 0.006,0.025,0.1
"C#CCON=C(C(=O)NC1C(=O)N2C(C(=O)[O-])=C(C[n+]3ccn4cccc4c3)CSC12)c1csc(N)n1 (stereo not drawn) [Ex. 4, 7-β-[(Z)-2-(2-aminothiazol-4-yl)-2-(propyn-1-oxyimino)acetamido]-3-(pyrrolo[1,2-a]pyrazinium-2-yl)methyl-3-cephem-4-carboxylate]",0.78,0.2,0.39,25,0.39,0.78,0.1,0.012,0.78,0.39,0.012,≤ 0.006,0.05,0.05,1.56,0.78,6.25,0.012,0.05,0.1
"Nc1nc(C(=NOCF)C(=O)NC2C(=O)N3C(C(=O)[O-])=C(C[n+]4ccn5cccc5c4)CSC23)cs1 (stereo not drawn) [Ex. 6, 7-β-[(Z)-2-(2-aminothiazol-4-yl)-2-fluoromethoxyiminoacetamido]-3-(pyrrolo[1,2-a]pyrazinium-2-yl)methyl-3-cephem-4-carboxylate]",0.2,0.2,0.39,25,1.56,0.78,0.1,0.012,0.05,0.012,≤ 0.006,≤ 0.006,0.012,≤ 0.006,0.39,0.2,3.13,≤ 0.006,≤ 0.006,0.012

# These reach a lower MIC (B. subtilis ATCC 6633). Values come first.
MIC (B. subtilis ATCC 6633) [µg/mL],MIC (Staph. aureus ATCC 6538P) [µg/mL],MIC (Staph. aureus Smith) [µg/mL],MIC (Staph. aureus C-57) [µg/mL],MIC (Staph. aureus C-5113) [µg/mL],MIC (Staph. aureus C-5216) [µg/mL],MIC [1] [µg/mL],MIC (Ent. aerogenes IFO 12979) [µg/mL],MIC (Ent. cloacae IFO 13535) [µg/mL],MIC (E. coli NIHJ JC-2) [µg/mL],MIC (E. coli No. 29) [µg/mL],MIC (E. coli DY-1) [µg/mL],MIC (K. pneumoniae NCTC 9632) [µg/mL],MIC (M. morganii DY-1) [µg/mL],MIC [2] [µg/mL],MIC [3] [µg/mL],MIC (Ps. aeruginosa DY-2) [µg/mL],MIC (P. vulgaris NCTC 8313) [µg/mL],MIC (Prov. stuartii IFO 12930) [µg/mL],MIC [4] [µg/mL],Compound
0.1,0.1,0.39,25,0.78,0.78,0.025,≤ 0.006,0.05,≤ 0.006,≤ 0.006,≤ 0.006,≤ 0.006,≤ 0.006,0.39,0.1,1.56,≤ 0.006,≤ 0.006,≤ 0.006,"CON=C(C(=O)NC1C(=O)N2C(C(=O)[O-])=C(C[n+]3ccn4cccc4c3)CSC12)c1csc(N)n1 (stereo not drawn) [Ex. 1-1, 7-β-[(Z)-2-(2-aminothiazol-4-yl)2-methoxyiminoacetamido]-3-(pyrrolo[1,2a]pyrazinium-2-yl)methyl-3-cephem-4-carboxylate]"
0.1,0.1,0.39,6.25,0.39,0.39,0.025,0.012,0.2,0.025,≤ 0.006,≤ 0.006,≤ 0.006,≤ 0.006,0.2,0.2,0.78,≤ 0.006,0.012,≤ 0.006,"CCON=C(C(=O)NC1C(=O)N2C(C(=O)[O-])=C(C[n+]3ccn4cccc4c3)CSC12)c1csc(N)n1 (stereo not drawn) [Ex. 3, 7-β-[(Z)-2-(2-aminothiazol-4-yl)-2-ethoxyiminoacetamido]-3-(pyrrolo[1,2-a]pyrazinium-2-yl)methyl-3-cephem-4-carboxylate]"
0.1,0.2,0.2,12.5,0.2,0.2,0.025,≤ 0.006,0.025,0.012,≤ 0.006,≤ 0.006,≤ 0.006,≤ 0.006,0.39,0.2,1.56,≤ 0.006,≤ 0.006,≤ 0.006,"Nc1nc(C(=NOCCF)C(=O)NC2C(=O)N3C(C(=O)[O-])=C(C[n+]4ccn5cccc5c4)CSC23)cs1 (stereo not drawn) [Ex. 5, 7-β-[(Z)-2-(2-aminothiazol-4-yl)-2-(2-fluoroethoxyimino)acetamido]-3-(pyrrolo[1,2-a]pyrazinium-2-yl)methyl-3-cephem-4-carboxylate]"

# Source: patent US5593984A, “Cephalosporin derivatives” (Yuhan Corporation, priority 1992, dated 1997)
